Measured values reported in patent US20210213081A1, “COMPOSITION FOR PREVENTING, AMELIOREATING, OR TREATING STRESS OR DEPRESSION COMPRISING MEDICINAL HERB EXTRACT AS EFFECTIVE INGREDIENT” (KOREA INSTITUTE OF ORIENTAL MEDICINE, priority 2016, published 2021).

Key:
cortisol = assay: Blood cortisol measurement after immobility stress (competitive enzyme immunoassay); format: in vivo; conditions: mouse blood serum, immobility stress 22 days, 20 mg/kg oral daily, FIG. 7
Text: (§1) As a test animal, 7-week old male C57BL/6 mouse was used after obtaining it from Samtako Bio Korea. The test animals were acclimated for 7 days in the test animal research center, which is a specific pathogen-free facility of Korea Institute of Oriental Medicine. They were divided into the followings 6 groups in total: normal group not exposed to any stress (Control, n=16), stress control group applied with the stress only (Vehicle, n=16), positive control group applied with the stress and commercially available anti-depressant (Fluoxetine, n=16), and test groups applied with the stress and extract of Hibiscus syriacus root (100, 200, or 400 mg/kg, n=16). […]
(§2) Upon the completion of the test, the test animal was anesthetized, and blood was collected from the heart and centrifuged (1,000×g, 15 minutes) to obtain blood serum. […] Then, the absorbance at 405 nm was measured by using Micro Spectrophotometer (Molecular Device, Sunnyvale, Calif., USA).

C57BL/6 mouse [1] = assay: Tail suspension test (TST) in immobility stress model; format: in vivo; conditions: immobility stress 22 days, 20 mg/kg oral daily, FIG. 6
Text: as §1
The method by Can and others was used for the tail suspension test. […] Of total 6 minutes, the measurement was not carried out for initial 2 minutes as an acclimation period, while the immobile time of the test animal was measured for the last 4 minutes. […]

serotonin = assay: Blood serotonin measurement after immobility stress (competitive enzyme immunoassay); format: in vivo; conditions: mouse blood serum, immobility stress 22 days, 20 mg/kg oral daily, FIG. 8
Text: as §1
as §2, with “After adding the stop solution (50 μl),” for “Then,”

C57BL/6 mouse [2] = assay: Forced swimming test (FST) in immobility stress model; format: in vivo; conditions: immobility stress 22 days, 20 mg/kg oral daily, FIG. 5
Text: as §1
To measure the anti-depression effect of an extract of Hibiscus syriacus root, the forced swimming test was carried out, after the completion of the immobility stress test, by using the method of Porsolt, et. al. ([…]). […] Of total 6 minutes, the measurement was not carried out for initial 2 minutes as an acclimation period, while the immobile time of the test animal was measured for the last 4 minutes. […]

C57BL/6 mouse [3] = assay: Sucrose preference test (SPT) in immobility stress model; format: in vivo; conditions: immobility stress 22 days, 20 mg/kg oral daily, FIG. 4
Text: as §1, with “n=16). The test methods were reviewed by Test animal ethics committee of Korea Institute of Oriental Medicine (approval number: 15-102), and as for the breeding and maintenance of the test animals, the animals were placed in an IVC (individually ventilated cage) (5 animals per cage), which has been constantly maintained at temperature of 23±1° C., humidity of 50±10% or so, and light/dark period of 12 hours, based on the regulations for management and use of animals by the Test Animal Research Center of Korea Institute of Oriental Medicine.” for “n=16).”
The sucrose preference test was carried out on Day 1 of the test and after completion of the test. […] The intake preference was calculated as follows.

SK-N-SH cells = assay: Activity of protecting nerve cells against corticosterone toxicity, MTS assay (cell proliferation); format: cell-based, human; conditions: 0.25 mM corticosterone for 1 hour, versus normal group
Procedure: SK-N-SH cells as human neuroblastoma cell line were obtained from Korean Cell Line Bank, cultured in DMEM (Dulbecco's modified Eagle's medium) medium containing 10% bovine serum and 1% penicillin/streptomycin (37° C., 5% CO2 incubator), and used. Once a cell monolayer is formed, the cells were treated with TrypLE 1× solution to release the cells followed by subculture.
Furthermore, based on the toxicity of corticosterone, the activity of protecting nerve cells in human blastoma was examined. Specifically, on a Corning BioCoat collagen I 96-well plate, SK-N-SH cells were sewn at 3×10^4/well. Thereafter, the cells were pre-treated for 24 hours with an extract of Hibiscus syriacus flower or Hibiscus syriacus root at a concentration of 10, 50, 100, or 200 μg/ml followed by a treatment with 0.25 mM corticosterone for 1 hour to induce oxidative stress. Then, MTS assay was carried out and, by measuring the absorbance using ELISA (enzyme-linked immunosorbent assay) plate reader, the cell proliferation was determined.
As a positive control, a treatment with 10 μM fluoxetine (Sigma, St. Louis, Mo., USA) was carried out instead of the treatment with an extract of Hibiscus syriacus flower or Hibiscus syriacus root.

SMILES: CNCCC(Oc1ccc(C(F)(F)F)cc1)c1ccccc1 (stereo not drawn) [Fluoxetine, fluoxetine]
- cortisol production in blood compared to control group (Vehicle) (cortisol): decreased in significant sense
- immobile time in tail suspension test compared to control group (Vehicle) (C57BL/6 mouse [1]): decreased
- serotonin production in blood compared to control group (Vehicle) (serotonin): increased in significant sense
- immobile time in forced swimming test compared to control group (Vehicle) (C57BL/6 mouse [2]): decreased in significant sense
- sucrose intake amount compared to stress control group (Vehicle) (C57BL/6 mouse [3]): increased in significant sense

SMILES: C[C@]12C[C@H](O)[C@H]3[C@@H](CCC4=CC(=O)CC[C@@]43C)[C@@H]1CC[C@@H]2C(=O)CO [corticosterone]
- cells diminished by treatment with corticosterone (SK-N-SH cells): ~50%
